For data set [1], the system named is alkaline phosphatase activity in T47D cells. The data set is described as follows: T47D Cell Alkaline Phosphatase Assay. Type of data set: cell-based, human. Conditions: antagonist mode, in the presence of 1 nM progesterone, read-out: Example 18A 'T47D Cell Alkaline Phosphatase Assay' IC50. How it is done: A. Effects of Progestins and Antiprogestins on Alkaline Phosphatase Activity in T47D Cells—T47D Cell Alkaline Phosphatase Assay
The purpose of this assay is to identify progestins or antiprogestins by determining a compound's effect on alkaline phosphatase activity in T47D cells. The materials and methods are as follows.
Culture medium: DMEM:F12 (1:1) (GIBCO, BRL) supplemented with 5% (v/v) charcoal stripped fetal bovine serum (not heat-inactivated), 100 U/ml penicillin, 100 ug/ml streptomycin, and 2 mM GlutaMax (GIBCO, BRL).
Alkaline phosphatase assay buffer:
I. 0.1M Tris-HCl, pH 9.8, containing 0.2% Triton X-100
II. 0.1M Tris-HCl, pH 9.8, containing 4 mM p-nitrophenyl phosphate (Sigma).
Frozen T47D cells are thawed in a 37° C. water bath and diluted to 280,000 cells/ml in culture medium. To each well in a 96-well plate (Falcon, Becton Dickinson Labware), 180 μl of diluted cell suspension is added. 20 μl of reference or test compounds diluted in the culture medium is then added to each well. […] The cells are incubated at 37° C. in a 5% CO2/humidified atmosphere for 24 hours. NOTE: For high throughput screening, one concentration of each compound is tested at 0.3 μg/ml. Based on an average molecular weight of 300 g/mol for the compounds in the library, the concentration is approximately 1 μM.
At the end of treatment, the medium is removed from the plate. 50 μl of assay buffer I is added to each well. The plates are shaken in a titer plate shaker for 15 min. Then 150 μl of assay buffer II is added to each well.
Subsequent dose response data for screening hits will be evaluated as described below. Analysis of dose-response data. For reference and test compounds, a dose response curve is generated for dose (X-axis) vs. the rate of enzyme reaction (slope) (Y-axis). Square root-transformed data are used for analysis of variance and nonlinear dose response curve fitting for both agonist and antagonist modes. Huber weighting is used to downweight the effects of outliers. EC50 or IC50 values are calculated from the retransformed values.
Percent (%) of induction for agonists at the tested concentrations. […] The default concentration is in the nM range.

The target of data set [2] is T1, progesterone receptor (PR) (Homo sapiens, UniProt P06401).
T1 construct: in live, intact (whole) cells, using the human breast carcinoma T47D cell line; endogenous in cells; host or cells: T47D human breast carcinoma cells (live, intact)
T1 sequence (P06401 1-933): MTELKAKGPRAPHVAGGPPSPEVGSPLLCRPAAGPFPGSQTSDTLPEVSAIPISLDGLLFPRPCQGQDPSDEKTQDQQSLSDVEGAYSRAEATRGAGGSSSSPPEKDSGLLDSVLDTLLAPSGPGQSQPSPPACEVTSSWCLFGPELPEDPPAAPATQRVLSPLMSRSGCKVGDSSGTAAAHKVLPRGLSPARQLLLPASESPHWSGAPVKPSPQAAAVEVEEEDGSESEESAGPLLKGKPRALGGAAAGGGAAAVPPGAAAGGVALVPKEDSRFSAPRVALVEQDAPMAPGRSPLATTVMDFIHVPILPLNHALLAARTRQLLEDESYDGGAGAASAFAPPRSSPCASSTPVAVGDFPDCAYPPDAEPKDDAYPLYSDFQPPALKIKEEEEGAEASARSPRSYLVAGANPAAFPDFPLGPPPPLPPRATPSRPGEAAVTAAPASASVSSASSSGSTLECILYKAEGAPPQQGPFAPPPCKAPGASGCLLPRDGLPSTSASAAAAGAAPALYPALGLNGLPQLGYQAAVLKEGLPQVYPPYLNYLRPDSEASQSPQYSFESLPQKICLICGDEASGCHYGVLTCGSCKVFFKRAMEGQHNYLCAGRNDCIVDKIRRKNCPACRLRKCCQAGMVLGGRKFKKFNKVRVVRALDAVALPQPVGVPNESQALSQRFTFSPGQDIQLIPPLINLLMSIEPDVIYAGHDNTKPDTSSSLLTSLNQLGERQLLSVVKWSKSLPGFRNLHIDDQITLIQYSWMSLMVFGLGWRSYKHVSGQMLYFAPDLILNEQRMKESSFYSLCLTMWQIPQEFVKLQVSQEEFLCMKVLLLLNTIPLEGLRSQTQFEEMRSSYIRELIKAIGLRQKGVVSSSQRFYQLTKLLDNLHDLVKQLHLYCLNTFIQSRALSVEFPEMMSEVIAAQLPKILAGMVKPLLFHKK
The experiment in a line: Progesterone Receptor Whole Cell Competition Binding Assay Using T47D Cells. The conditions noted are these: 3H-progesterone 3 nM, read-out: Example 18B 'T47D PR whole cell binding Assay' IC50. As for the experimental part:
1. Culture medium: 5% RC: phenol red free DMEM:F12 (1:1) (GIBCO, BRL) supplemented with 5% (v/v) charcoal stripped fetal bovine serum (not heat-inactivated), 100 U/ml penicillin, 100 ug/ml streptomycin, and 2 mM GlutaMax (GIBCO, BRL).
2. T47D cell culture: T47D cells are maintained in 10% RC media at 37° C. in a 5% CO2/humidified atmosphere and need to be split twice weekly for proper response. Cells are plated in 10% RC the day before binding assay at 50,000 cells per well in the white, clear bottom plates purchased through VWR or Perkin Elmer.
Cells plated the day prior to the assay in white clear bottom plates are used. A master compound plate is set up containing control and test compounds at 20× final desired concentration for the competition binding. A typical dose range of 20× concentrations are (in nM); 200,000; 20,000; 6000; 2000; 600; 200; 20; and 2. Final concentrations are then (in nM); 10,000; 1000; 300; 100; 30; 10; 1; 0.1.
Media on cells is replaced with 180 μl of 5% RC. […] Compounds are incubated for 3 hrs at 37° C. […] Following incubation, media is carefully removed and cells are washed 3× with 200 μl 5% RC each wash. 50 μl of liquid scintillation cocktail is added and the plates are shaken vigorously for a minimum of 15 minutes.
Square root-transformed data are used for analysis of variance and calculation of IC50 SAS software (SAS Institute, Inc.) is used for all the statistical analysis.

Data set [3] concerns alkaline phosphatase activity in T47D cells. The data set is described as follows: T47D Cell Alkaline Phosphatase Assay. Type of data set: cell-based. Conditions: Homo sapiens, read-out: Example 18A 'T47D Cell Alkaline Phosphatase Assay' Inhibition (%).

Like-named read-outs stand apart in the source and are kept apart here.

As for `CCC(C)c1c(OC)ccc2c1oc1ccc(C#N)cc12` (single isomer, unassigned; (+)) [Example 16, (+)-6-sec-butyl-7-methoxydibenzo[b,d]furan-2-carbonitrile], in data set [1], the IC50 (usually the concentration that inhibits the measured activity by half) is 0.013 µM. As to `CCC(C)c1c(O)ccc2c1oc1ccc(C#N)cc12` (single isomer, unassigned; (-)) [Example 15, (−)-6-sec-butyl-7-hydroxydibenzo[b,d]furan-2-carbonitrile], the values for the IC50 in data set [1] and in data set [2] were 0.148 µM and 0.0812 µM, respectively. `N#Cc1ccc2oc3cc(O)ccc3c2c1` [Example 2, 7-hydroxydibenzo[b,d]furan-2-carbonitrile]: the melting point (as a rule, the temperature, or range, at which the solid turns liquid) is 270 to 271 °C. Moreover, the IC50 in data set [1] (Homo sapiens, T47D, 24 h) was determined as 0.534 µM.

For the molecule `CCC(C)c1c(OC)ccc2c1oc1ccc(C#N)cc12` (racemic) [Example 12, 6-sec-butyl-7-methoxydibenzo[b,d]furan-2-carbonitrile], the melting point fell in the range of 80 to 82 °C. The IC50 in data set [1] (Homo sapiens, T47D, 24 h) is 0.0185 µM. Further, in data set [2], the IC50 was found to be 0.0597 µM.

With `COc1ccc2c(oc3ccc(C#N)cc32)c1C(C)C` [Example 9, 6-isopropyl-7-methoxydibenzo[b,d]furan-2-carbonitrile], the concentration for half-maximal inhibition (IC50) in data set [1] (Homo sapiens, T47D, 24 h) was 0.048 µM. As to `CCC(C)c1c(OC)ccc2c1oc1ccc(C#N)cc12` (single isomer, unassigned; (-)) [Example 17, (−)-6-sec-butyl-7-methoxydibenzo[b,d]furan-2-carbonitrile], in data set [1], the IC50 turned out to be 0.03 µM. Regarding `N#Cc1ccc2oc3c(Br)c(O)c(F)cc3c2c1` [Example 3, 6-bromo-8-fluoro-7-hydroxydibenzo[b,d]furan-2-carbonitrile], the melting point is 270 °C (dec.). On to `Cc1ccccc1-c1c(O)c(F)cc2c1oc1ccc(C#N)cc12` [Example 4, 8-fluoro-7-hydroxy-6-(2-methylphenyl)dibenzo[b,d]furan-2-carbonitrile], for which the inhibition (as a rule, how much of the control response was suppressed) at 3 µM in data set [3] turned out to be 50%. For `N#Cc1ccc2oc3c(-c4ccccc4F)c(O)c(F)cc3c2c1` [Example 8, 8-fluoro-6-(2-fluorophenyl)-7-hydroxydibenzo[b,d]furan-2-carbonitrile], the inhibition at 3 µM in data set [3] is 40%. For `N#Cc1ccc2oc3c(C4CCCC4)c(O)ccc3c2c1` [Example 11, 6-cyclopentyl-7-hydroxydibenzo[b,d]furan-2-carbonitrile], the IC50 in data set [1] (Homo sapiens, T47D, 24 h) came to 0.05 µM. Turning to `CCC(C)c1c(O)ccc2c1oc1ccc(C#N)cc12` (single isomer, unassigned; (+)) [Example 14, (+)-6-sec-butyl-7-hydroxydibenzo[b,d]furan-2-carbonitrile], the IC50 was 0.022 µM in data set [1] and 0.0415 µM in data set [2]. `CC(C)c1c(O)ccc2c1oc1ccc(C#N)cc12` [Example 10, 7-hydroxy-6-isopropyldibenzo[b,d]furan-2-carbonitrile]: the melting point fell in the range of 180 to 182 °C. For the same molecule, the IC50 in data set [1] (Homo sapiens, T47D, 24 h) amounted to 0.028 µM. Moreover, the IC50 in data set [2] worked out at 0.0211 µM. Turning to `CCC(C)c1c(O)ccc2c1oc1ccc(C#N)cc12` (racemic) [Example 13, 6-sec-butyl-7-hydroxydibenzo[b,d]furan-2-carbonitrile], the melting point lay in the range of 206 to 207 °C. The IC50 in data set [1] (Homo sapiens, T47D, 24 h) turned out to be 0.019 µM. The IC50 in data set [2] came out at 0.0367 µM.

The molecule `COc1cc2oc3ccc(C#N)cc3c2cc1F` [Example 7, 8-fluoro-7-methoxydibenzo[b,d]furan-2-carbonitrile] displayed a melting point of 206 to 208 °C. In addition, the inhibition at 3 µM in data set [3] turned out to be 65%.

`COc1ccc2c(c1)oc1ccc(C#N)cc12` [Example 1, 7-methoxydibenzo[b,d]furan-2-carbonitrile]: in data set [1] (Homo sapiens, T47D, 24 h), the IC50 is 0.259 µM. For `N#Cc1ccc2oc3cc(O)c(F)cc3c2c1` [Example 6, 8-fluoro-7-hydroxydibenzo[b,d]furan-2-carbonitrile], the melting point is 270 °C (dec.).

These data come from patent publication US20070093548A1 (Wyeth, priority 2005, published 2007).
